Experimental data from patent publication US12263248B2, “Compounds and compositions for intracellular delivery of therapeutic agents” (ModernaTX, Inc., priority 2018, dated 2025).

Tests used:
[1] = Apparent (surface) pKa of the LNP formulation (TNS assay); format: physicochemical; details: for pKa: Table 1A
In short: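 LNP (0.04 mg/mL mRNA) mixed with TNS reagent in 21 buffers spanning about pH 3-12, in triplicate; fluorescence plotted against pH as sigmoidal curve. Apparent pKa taken as […] curve inflection point; validated in 1× PBS and 20 mM Tris w/8% sucrose.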

luciferase (Luc) mRNA [2] = assay: Luc expression (total flux) after intramuscular administration; format: in vivo, mice; details: for i.m. Lipid/MC3 0.01 mpk, Luc, 6 h: Table 3B; for Total flux, 0.001 mpk Dose / Total flux, 0.01 mpk Dose / Total flux (p/s) 0.01 mpk Dose: 6 hours after intramuscular administration; for Total flux, 0.001 mpk Dose / Total flux, 0.01 mpk Dose: Luc mRNA and H10 mRNA; for Total flux (p/s) 0.01 mpk Dose: Table 5B; for AUC (p/s * h) / Lipid/MC3 AUC: Table 3H, Luc
Protocol: In order to monitor how effectively various nanoparticle compositions deliver therapeutic and/or prophylactics to targeted cells, different nanoparticle compositions including a particular therapeutic and/or prophylactic (for example, a modified or naturally occurring RNA such as an mRNA) are prepared and administered to rodent populations. Mice are intravenously, intramuscularly, intraarterially, or intratumorally administered a single dose including a nanoparticle composition with a formulation such as those provided in Example 3. In some instances, mice may be made to inhale doses. Dose sizes may range from 0.001 mg/kg to 10 mg/kg, where 10 mg/kg describes a dose including 10 mg of a therapeutic and/or prophylactic in a nanoparticle composition for each 1 kg of body mass of the mouse. A control composition including PBS may also be employed.
Sample formulations including both modified luciferase (Luc) mRNA and H10 mRNA were prepared and administered intramuscularly and the resulting expression and immunogenicity were evaluated simultaneously. Formulations including compounds according to Formula (I), (IA), (IB), (II), (IIa), (IIb), (IIc), (IId), (IIe), (IIf), (IIg), (III), (VI), (VI-a), (VII), (VIII), (VIIa), (VIIIa), (VIIIb), (VIIb-1), (VIIb-2), (VIIb-3), (VIIc), (VIId), (VIIIc), or (VIIId) were prepared and administered at doses of 0.001 and 0.01 mpk (e.g., doses of 0.0005 mpk of a formulation including Luc mRNA and a formulation including H10 mRNA or doses of 0.005 mpk of a formulation including Luc mRNA and a formulation including H10 mRNA).
Sample formulations including modified luciferase (Luc) mRNA prepared and administered intramuscularly and the resulting expression and immunogenicity were evaluated simultaneously. Formulations including compounds according to Formula (I), (IA), (IB), (II), (IIa), (IIb), (IIc), (IId), (IIe), (IIf), (IIg), (III), (VI), (VI-a), (VII), (VIII), (VIIa), (VIIIa), (VIIIb), (VIIb-1), (VIIb-2), (VIIb-3), (VIIc), (VIId), (VIIIc), or (VIIId) were prepared and administered at dose of and 0.01 mpk.

[3] = Particle size and polydispersity index of nanoparticle compositions (Zetasizer Nano ZS); format: physicochemical; details: Table 1A; for Size (nm): lipid:DSPC:cholesterol:PEG-DMG 50:10:38.5:1.5 mol %
In short: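 Nanoparticle compositions are diluted in 1×PBS, then size and polydispersity index are read on a Zetasizer Nano ZS instrument.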

[4] = Encapsulation efficiency of RNA (QUANT-IT RIBOGREEN RNA assay); format: physicochemical; details: Table 1A
In short: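 RiboGreen fluorescence (ex ~480, em ~520 nm) compared between intact samples and Triton X-100-lysed samples after 15 min at 37 °C in TE buffer, pH 7.5. Percent free RNA is the blank-corrected intact/disrupted ratio.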

luciferase (Luc) mRNA [5] = assay: Luc expression in liver, lung, spleen and femur 6 hours after intravenous administration; format: in vivo; details: mice, intravenous, 0.5 mpk
In short: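 LNP-formulated mRNA given IV to mice (n=3) at 0.5 mpk; at 6 h, bioluminescence imaged ex vivo 15 min after IP D-luciferin (15 mg/mL, 200 μL), organs imaged within 25 min. Values are total flux by region of interest.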

luciferase (Luc) mRNA [6] = assay: Luc expression, whole body bioluminescence after intravenous administration to mice; format: in vivo; details: for Total Flux 3 hours / Total Flux 6 hours / Total Flux 24 hours: Luc mRNA; for Fold increase in total body Luc Flux relative to MC3 at 6 h: Table 3A, i.v. administration
In short: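 Luc mRNA nanoparticle formulations given intravenously to mice (n=6) at 0.5 mg/kg; whole-body bioluminescence imaged at 3, 6 and 24 h. CD-1 mice received IP D-luciferin (200 μL of 15 mg/mL) 15 min before imaging; total flux quantified by region of interest.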

pKa [1]	PDI [3]	Size (nm) [3] [nm]	EE (%) [4] [%]	Compound	Total Flux Liver (luciferase (Luc) mRNA [5])	Total Flux Lung (luciferase (Luc) mRNA [5])	Total Flux Spleen (luciferase (Luc) mRNA [5])	Total Flux 3 hours (luciferase (Luc) mRNA [6]; mice, i.v., 0.5 mg/kg)	Total Flux 6 hours (luciferase (Luc) mRNA [6]; mice, i.v., 0.5 mg/kg)	Total Flux 24 hours (luciferase (Luc) mRNA [6]; mice, i.v., 0.5 mg/kg)	other results
6.15	0.16	65.7	94.8	CCCCCCCCCOC(=O)CCCCCCCN(CCCCCCCC(=O)OC(CCCCCCCC)CCCCCCCC)CCCOC(=O)NC [Compound 175, Heptadecan-9-yl 8-((3-((methylcarbamoyl)oxy)propyl)(8-(nonyloxy)-8-oxooctyl)amino)octanoate]	–	–	–	–	–	–	i.m. Lipid/MC3 0.01 mpk, Luc, 6 h (luciferase (Luc) mRNA [2]): 0.1
6.42	0.11	65.1	98.8	CCCCCCCCCOC(=O)CCCCCCCN(CCCCCCCC(=O)OC(CCCCCCCC)CCCCCCCC)CCCn1ccc(=O)[nH]c1=O [Compound 114, Heptadecan-9-yl 8-((3-(2,4-dioxo-3,4-dihydropyrimidin-1(2H)-yl)propyl)(8-(nonyloxy)-8-oxooctyl)amino)octanoate]	–	–	–	8.41E+07	5.98E+07	–	Total flux (p/s) 0.01 mpk Dose (luciferase (Luc) mRNA [2]): 3.31E+06 p/s
6.31	0.16	75.5	92.89	CCCCCCCCCOC(=O)CCCCCCCN(CCCCCCCC(=O)OC(CCCCCCCC)CCCCCCCC)CCCN(C)S(C)(=O)=O [Compound 173, Heptadecan-9-yl 8-((3-(N-methylmethylsulfonamido)propyl)(8-(nonyloxy)-8-oxooctyl)amino)octanoate]	–	–	–	–	–	–	i.m. Lipid/MC3 0.01 mpk, Luc, 6 h (luciferase (Luc) mRNA [2]): 0.6
8.50	–	–	–	CCCCCCCCCOC(=O)CCCCCCCN(CCCN)CCCCCCCC(=O)OC(CCCCCCCC)CCCCCCCC [Compound 121, Heptadecan-9-yl 8-((3-aminopropyl)(8-(nonyloxy)-8-oxooctyl)amino)octanoate]	–	–	–	1.29E+06	1.36E+06	–	Total flux (p/s) 0.01 mpk Dose (luciferase (Luc) mRNA [2]): 1.06E+06 p/s
6.59	0.21	81.4	98.8	CCCCCCCCCOC(=O)CCCCCCCN(CCCCCCCC(=O)OC(CCCCCCCC)CCCCCCCC)CCCn1cc(CO)nn1 [Compound 218, Heptadecan-9-yl 8-((3-(4-(hydroxymethyl)-1H-1,2,3-triazol-1-yl)propyl)(8-(nonyloxy)-8-oxooctyl)amino)octanoate]	–	–	–	–	–	–	Novel lipid/MC3 expression ratio, 6 hr. time point, i.m. Luc (luciferase (Luc) mRNA [2]; intramuscular, relative to MC3 formulation): 1.77

Continued, compound first:

Compound	pKa [1]	PDI [3]	Size (nm) [3] [nm]	EE (%) [4] [%]	Total Flux Liver (luciferase (Luc) mRNA [5])	Total Flux Lung (luciferase (Luc) mRNA [5])	Total Flux Spleen (luciferase (Luc) mRNA [5])	Total Flux 3 hours (luciferase (Luc) mRNA [6]; mice, i.v., 0.5 mg/kg)	Total Flux 6 hours (luciferase (Luc) mRNA [6]; mice, i.v., 0.5 mg/kg)	Total Flux 24 hours (luciferase (Luc) mRNA [6]; mice, i.v., 0.5 mg/kg)	other results
CCCCCCCCCN(CCCCCCCC(=O)OC(CCCCCCCC)CCCCCCCC)CCCn1ccnc1 [Compound 8, Heptadecan-9-yl 8-((3-(1H-imidazol-1-yl)propyl)(nonyl)amino)octanoate]	6.64	0.15	121.0	95.8	7.87E+08	4.06E+06	1.51E+08	7.43E+09	6.71E+09	7.84E+08	Total flux, 0.001 mpk Dose (luciferase (Luc) mRNA [2]): 7.81E+05 p/s; Total flux, 0.01 mpk Dose (luciferase (Luc) mRNA [2]): 3.32E+06 p/s
CCCCCCCCCOC(=O)CCCCCCCN(CCO)CCCCCCCC(=O)OC(CC)CCCCCCCC (stereo not shown) [Compound 35, nonyl 8-((2-hydroxyethyl)(8-oxo-8-(undecan-3-yloxy)octyl)amino) octanoate]	6.85	0.18	151.1	90.82	1.63E+08	2.06E+06	1.23E+08	9.82E+08	1.24E+09	5.09E+07	Total flux, 0.001 mpk Dose (luciferase (Luc) mRNA [2]): 2.45E+06 p/s; Total flux, 0.01 mpk Dose (luciferase (Luc) mRNA [2]): 8.12E+06 p/s; Fold increase in total body Luc Flux relative to MC3 at 6 h (luciferase (Luc) mRNA [6]): 0.028
CCCCCCCCCOC(=O)CCCCCCCN(CCCCCCCC(=O)OC(CCCCCCCC)CCCCCCCC)CCCN1C(=O)CNC1=O [Compound 174, Heptadecan-9-yl 8-((3-(2,5-dioxoimidazolidin-1-yl)propyl)(8-(nonyloxy)-8-oxooctyl)amino)octanoate]	6.65	0.21	84.4	99.0	–	–	–	–	–	–	i.m. Lipid/MC3 0.01 mpk, Luc, 6 h (luciferase (Luc) mRNA [2]): 0.2
CCCCCCCCC(CCCCCCCC)OC(=O)CCCCCCCN(CCO)CCCC(=O)OC(CCCCC)CCCCCCCC (stereo not shown) [Compound 71, Heptadecan-9-yl 8-((2-hydroxyethyl)(4-oxo-4-(tetradecan-6-yloxy)butyl)amino)octanoate]	5.88	0.24	71	97.54	7.93E+08	4.86E+06	8.04E+06	4.09E+09	9.28E+09	6.51E+07	AUC (p/s * h) (luciferase (Luc) mRNA [2]; intramuscular): 6.61E+07 p/s * h; Lipid/MC3 AUC (luciferase (Luc) mRNA [2]; intramuscular): 0.11; Fold increase in total body Luc Flux relative to MC3 at 6 h (luciferase (Luc) mRNA [6]): 0.418
CCCCCCCCCOC(=O)CCCCCCCN(CCO)CCCCCCCC(=O)OC(CCCCCC)CCCCCCCC (stereo not shown) [Compound 32, nonyl 8-((2-hydroxyethyl)(8-oxo-8-(pentadecan-7-yloxy)octyl)amino) octanoate]	6.75	0.18	105.6	94.87	8.52E+09	1.16E+07	1.70E+08	8.65E+10	6.08E+10	1.92E+09	Total flux, 0.001 mpk Dose (luciferase (Luc) mRNA [2]): 7.37E+05 p/s; Total flux, 0.01 mpk Dose (luciferase (Luc) mRNA [2]): 1.03E+07 p/s; Fold increase in total body Luc Flux relative to MC3 at 6 h (luciferase (Luc) mRNA [6]): 1.39; total flux at 3 hours (luciferase (Luc) mRNA [6]; mice, i.v., 0.5 mg/kg, comparison in words): highest
CCCCCCCCCOC(=O)CCCCCCCN(CCCCCCCC(=O)OC(CCCCCCCC)CCCCCCCC)C(CO)CO [Compound 156, Heptadecan-9-yl 8-((1,3-dihydroxypropan-2-yl)(8-(nonyloxy)-8-oxooctyl)amino)octanoate]	6.572	0.11	68.1	98.47	6.51E+08	1.92E+06	1.82E+07	5.68E+09	1.03E+10	6.53E+07	App. pKa ([1]; Table 3F): 6.57; AUC (p/s * h) (luciferase (Luc) mRNA [2]; intramuscular): 3.92E+07 p/s * h; Lipid/MC3 AUC (luciferase (Luc) mRNA [2]; intramuscular): 0.07; Lipid/MC3 AUC (luciferase (Luc) mRNA [6]; Table 3D, intravenous): 0.61; AUC (p/s * h) (luciferase (Luc) mRNA [6]; Table 3D, intravenous, Luc): 1.170E+011 p/s * h
CCCCCCCCCOC(=O)CCCCCCCN(C)CCCCCCCC(=O)OC(CCCCCCCC)CCCCCCCC [Compound 123, Heptadecan-9-yl 8-(methyl(8-(nonyloxy)-8-oxooctyl)amino)octanoate]	6.27	–	–	–	2.50E+08	1.78E+06	4.04E+06	4.06E+09	1.81E+10	5.18E+08	Total flux (p/s) 0.01 mpk Dose (luciferase (Luc) mRNA [2]): 1.08E+07 p/s
